Results as given in ChEMBL document CHEMBL3046756, “Synthesis, anti-inflammatory, and structure antioxidant activity relationship of novel 4-quinazoline” (Med Chem Res, 2013).
The source made the active and inactive calls. The rule behind the calls is not given here.

How the values were obtained:
Rattus norvegicus [1] = assay: Effect on SGPT level in Wistar Rattus norvegicus (rat) at 150 mg/kg, po qd after 10 days (reference value: 38.77 +/- 4.25 U/I); assay type: functional
Rattus norvegicus [2] = assay: Anti-inflammatory activity in Wistar Rattus norvegicus (rat) assessed as inhibition of carrageenan-induced paw edema at 150 mg/kg, po administered 30 min prior to carrageenan challenge measured at 90 min relative to untreated control; assay type: functional
[3] = Antioxidant activity assessed as reduction of Fe3+ to Fe2+ at 20 to 120 ug/ml after 30 min by spectrophotometric analysis; assay type: functional
Rattus norvegicus [4] = assay: Anti-inflammatory activity in Wistar Rattus norvegicus (rat) assessed as inhibition of carrageenan-induced paw edema at 100 mg/kg, po administered 30 min prior to carrageenan challenge measured at 120 min relative to untreated control; assay type: functional
Rattus norvegicus [5] = assay: Antipyretic activity in Wistar Rattus norvegicus (rat) assessed as decrease in Brewer's yeast solution-induced hyperthermia at 50 mg/kg, po measured after 1 hr (reference value: 37 +/- 3.55 degC); assay type: functional
Rattus norvegicus [6] = assay: Antipyretic activity in Wistar Rattus norvegicus (rat) assessed as decrease in Brewer's yeast solution-induced hyperthermia at 150 mg/kg, po measured after 2 hr (reference value: 37 +/- 1.7 degC); assay type: functional
Rattus norvegicus [7] = assay: Effect on LDH level in Wistar Rattus norvegicus (rat) serum at 100 mg/kg, po qd after 10 days (reference value: 249.89 +/- 13.26 U/I); assay type: functional
Rattus norvegicus [8] = assay: Effect on glutathione reductase level in Wistar Rattus norvegicus (rat) liver measured NADPH oxidized per min per mg of protein at 150 mg/kg, po after 10 days (reference value: 4.19 +/ 0.42 nmol); assay type: functional
Rattus norvegicus [9] = assay: Anti-inflammatory activity in Wistar Rattus norvegicus (rat) assessed as inhibition of carrageenan-induced paw edema at 150 mg/kg, po administered 30 min prior to carrageenan challenge measured at 30 min post carrageenan challenge relative to untreated control; assay type: functional
[10] = Toxicity in ip dosed albino Mus musculus (mouse) assessed as mortality measured within 24 hr; assay type: organism-based; conditions: in vivo
Rattus norvegicus [11] = assay: Effect on glutathione peroxidase level in Wistar Rattus norvegicus (rat) liver measured GSH oxidized per min per mg of protein at 50 mg/kg, po after 10 days (reference value: 47.47 +/- 3.86 mmol); assay type: functional
Rattus norvegicus [12] = assay: Effect on ALP level in Wistar Rattus norvegicus (rat) serum at 100 mg/kg, po qd after 10 days (reference value: 39.5 +/- 3.86 U/I); assay type: functional
[13] = Antioxidant activity assessed as Fe2+ chelating activity at 1.5 mg/ml after 60 min by spectrophotometric analysis; assay type: functional
Rattus norvegicus [14] = assay: Anti-inflammatory activity in Wistar Rattus norvegicus (rat) assessed as inhibition of carrageenan-induced paw edema at 100 mg/kg, po administered 30 min prior to carrageenan challenge measured at 30 min post carrageenan challenge relative to untreated control; assay type: functional
Rattus norvegicus [15] = assay: Effect on ALP level in Wistar Rattus norvegicus (rat) serum at 50 mg/kg, po qd after 10 days (reference value: 39.5 +/- 3.86 U/I); assay type: functional
Rattus norvegicus [16] = assay: Anti-inflammatory activity in Wistar Rattus norvegicus (rat) assessed as inhibition of carrageenan-induced paw edema at 50 mg/kg, po administered 30 min prior to carrageenan challenge measured at 30 min post carrageenan challenge relative to untreated control; assay type: functional
Rattus norvegicus [17] = assay: Effect on glutathione reductase level in Wistar Rattus norvegicus (rat) liver measured NADPH oxidized per min per mg of protein at 100 mg/kg, po after 10 days (reference value: 4.19 +/ 0.42 nmol); assay type: functional
Rattus norvegicus [18] = assay: Effect on GST level in Wistar Rattus norvegicus (rat) liver measured CDNB conjugated per min per mg of protein at 50 mg/kg, po after 10 days (reference value: 0.86 +/- 0.08 mmol); assay type: functional
Rattus norvegicus [19] = assay: Effect on GSH level in Wistar Rattus norvegicus (rat) liver measured per mg of protein at 150 mg/kg, po after 10 days (reference value: 1.84 +/- 0.092 mg); assay type: functional
Rattus norvegicus [20] = assay: Effect on SGOT level in Wistar Rattus norvegicus (rat) at 150 mg/kg, po qd after 10 days (reference value: 145.50 +/- 13.86 U/I); assay type: functional
Rattus norvegicus [21] = assay: Anti-inflammatory activity in Wistar Rattus norvegicus (rat) assessed as inhibition of carrageenan-induced paw edema at 50 mg/kg, po administered 30 min prior to carrageenan challenge measured at 180 min relative to untreated control; assay type: functional
Rattus norvegicus [22] = assay: Effect on SGPT level in Wistar Rattus norvegicus (rat) at 100 mg/kg, po qd after 10 days (reference value: 38.77 +/- 4.25 U/I); assay type: functional
Rattus norvegicus [23] = assay: Anti-inflammatory activity in Wistar Rattus norvegicus (rat) assessed as inhibition of carrageenan-induced paw edema at 100 mg/kg, po administered 30 min prior to carrageenan challenge measured at 90 min relative to untreated control; assay type: functional
Rattus norvegicus [24] = assay: Effect on SGOT level in Wistar Rattus norvegicus (rat) at 50 mg/kg, po qd after 10 days (reference value: 145.50 +/- 13.86 U/I); assay type: functional
[25] = tested on: Radical scavenging activity; assay: Antioxidant activity assessed as DPPH free radical scavenging activity at 6 mg/ml after 5 to 60 min by spectrophotometric analysis; assay type: functional
Rattus norvegicus [26] = assay: Antipyretic activity in Wistar Rattus norvegicus (rat) assessed as decrease in Brewer's yeast solution-induced hyperthermia at 50 mg/kg, po measured after 3 hr (reference value: 36.8 +/- 1.9 degC); assay type: functional
Rattus norvegicus [27] = assay: Anti-inflammatory activity in Wistar Rattus norvegicus (rat) assessed as inhibition of carrageenan-induced paw edema at 50 mg/kg, po administered 30 min prior to carrageenan challenge measured at 90 min relative to untreated control; assay type: functional
Rattus norvegicus [28] = assay: Effect on ALP level in Wistar Rattus norvegicus (rat) serum at 150 mg/kg, po qd after 10 days (reference value: 39.5 +/- 3.86 U/I); assay type: functional
Rattus norvegicus [29] = assay: Effect on TBARS level in Wistar Rattus norvegicus (rat) serum at 100 mg/kg, po qd after 10 days (reference value: 0.82 +/- 0.073 nmol/ml); assay type: functional
Rattus norvegicus [30] = assay: Effect on GSH level in Wistar Rattus norvegicus (rat) liver measured per mg of protein at 100 mg/kg, po after 10 days (reference value: 1.84 +/- 0.092 mg); assay type: functional
Rattus norvegicus [31] = assay: Effect on glutathione reductase level in Wistar Rattus norvegicus (rat) liver measured NADPH oxidized per min per mg of protein at 50 mg/kg, po after 10 days (reference value: 4.19 +/ 0.42 nmol); assay type: functional
Rattus norvegicus [32] = assay: Effect on LDH level in Wistar Rattus norvegicus (rat) serum at 50 mg/kg, po qd after 10 days (reference value: 249.89 +/- 13.26 U/I); assay type: functional
Rattus norvegicus [33] = assay: Antipyretic activity in Wistar Rattus norvegicus (rat) assessed as decrease in Brewer's yeast solution-induced hyperthermia at 150 mg/kg, po measured after 3 hr (reference value: 36.8 +/- 1.9 degC); assay type: functional

Row | SMILES | Activity (Rattus norvegicus [1]) [U/L] | inhibition in vivo at 150 mg/kg (Rattus norvegicus [2]) [%] | Activity [3] | inhibition in vivo at 100 mg/kg (Rattus norvegicus [4]) [%] | T (Rattus norvegicus [5]) [°C] | T (Rattus norvegicus [6]) [°C] | Activity (Rattus norvegicus [7]) [U/L] | Activity (Rattus norvegicus [8]) [nmol] | inhibition in vivo at 150 mg/kg (Rattus norvegicus [9]) [%] | LD50 at 24 h [10] [mg/kg] | Activity (Rattus norvegicus [11]) [mmol] | Activity (Rattus norvegicus [12]) [U/L] | Activity [13] [%] | inhibition in vivo at 100 mg/kg (Rattus norvegicus [14]) [%] | Activity (Rattus norvegicus [15]) [U/L] | inhibition in vivo at 50 mg/kg (Rattus norvegicus [16]) [%] | Activity (Rattus norvegicus [17]) [nmol] | Activity (Rattus norvegicus [18]) [mmol] | Activity (Rattus norvegicus [19]) [mg] | Activity (Rattus norvegicus [20]) [U/L] | also measured
1 | COC(=O)c1ccccc1NC(=O)/C=C/c1ccc(O)c(O)c1 | 40.84 | 62.6 | Active | 64.3 | 37.7 | 36.5 | 239.19 | 6.36 | 37.9 | 1140 | 49.11 | 35.64 | 30 | 26.8 | 38.3 | 24.7 | 5.59 | 1.3 | 2.95 | 129.32 | inhibition in vivo at 50 mg/kg (Rattus norvegicus [21]): 65.3%; Activity (Rattus norvegicus [22]): 43.21 U/L; inhibition in vivo at 100 mg/kg (Rattus norvegicus [23]): 49.3%; Activity (Rattus norvegicus [24]): 135.62 U/L; Activity [25]: Active; T (Rattus norvegicus [26]): 36.8 °C; inhibition in vivo at 50 mg/kg (Rattus norvegicus [27]): 53.1%; Activity (Rattus norvegicus [28]): 31.17 U/L; Activity (Rattus norvegicus [29]): 0.75 nmol/mL; Activity (Rattus norvegicus [30]): 2.39 mg; Activity (Rattus norvegicus [31]): 4.85 nmol; Activity (Rattus norvegicus [32]): 240.38 U/L; T (Rattus norvegicus [33]): 36.5 °C
2 | O=c1c2ccccc2nc2n1NC(c1ccc(O)c(O)c1)C2 (stereo unspecified) | 33.26 | 44.2 | Active | 54.7 | 37.6 | 37 | 243.46 | 5.14 | 8.48 | 495 | 49.25 | 35.64 | 22 | 4.58 | 40.77 | 1.28 | 4.25 | 0.97 | 2.39 | 134.55 | inhibition in vivo at 50 mg/kg (Rattus norvegicus [21]): 47%; Activity (Rattus norvegicus [22]): 36.15 U/L; inhibition in vivo at 100 mg/kg (Rattus norvegicus [23]): 45.9%; Activity (Rattus norvegicus [24]): 139.53 U/L; Activity [25]: Active; T (Rattus norvegicus [26]): 36.1 °C; inhibition in vivo at 50 mg/kg (Rattus norvegicus [27]): 39.5%; Activity (Rattus norvegicus [28]): 37.58 U/L; Activity (Rattus norvegicus [29]): 0.83 nmol/mL; Activity (Rattus norvegicus [30]): 1.85 mg; Activity (Rattus norvegicus [31]): 4.33 nmol; Activity (Rattus norvegicus [32]): 246.29 U/L; T (Rattus norvegicus [33]): 36.6 °C
